Patent publication US4220755A, “Fortimicin B derivatives and process for production thereof” (Abbott Laboratories, priority 1976, dated 1980)
Values after ≈ are worked out from the molar mass of the structure shown. Read-outs that look alike come from different tables or passages of the source.

How the values were obtained:
Escherichia coli NIHTC-2 = test: MIC, agar dilution method, pH 7.2; type: cell-based
Protocol: (§1) Measurement was carried out according to the agar dilution method, using a medium of pH 8.0, or the Japanese Antibiotic Medicament Standard, using a medium of pH 7.2 Units are in mcg/ml.

[1] = tested on: Eschericihia coli GN2411-5; test: MIC, agar dilution method, pH 7.2; type: cell-based; conditions: Escherichia coli
Protocol: as §1

[2] = tested on: Klebsiella pneumoniae KY4274; test: MIC, agar dilution method, pH 7.2; type: cell-based
Protocol: as §1

Proteus vulgaris JJ = test: MIC, agar dilution method, pH 7.2; type: cell-based
Protocol: as §1

[3] = tested on: Pseudomonas aeruginosa BMH# 1; test: MIC, agar dilution method, pH 7.2; type: cell-based
Protocol: as §1

[4] = tested on: Pseudomonas aeruginosa UCLA 4184; test: MIC, agar dilution method, pH 7.2; type: cell-based; conditions: UCLA4184; pH 7.2; Pseudomonas aeruginosa UCLA 4184; read-out: Minimum inhibition concentration (MIC)
Protocol: as §1

[5] = tested on: Salmonella enteritidis G-14; test: MIC, agar dilution method, pH 7.2; type: cell-based; conditions: Salmonella enterica
Protocol: as §1

Shigella sonnei ATCC9290 = test: MIC, agar dilution method, pH 7.2; type: cell-based; conditions: read-out: Minimum inhibition concentration (MIC)
Protocol: as §1

[6] = tested on: Staphylococcus aureus 209-P; test: MIC, agar dilution method, pH 7.2; type: cell-based; conditions: pH 7.2; Staphylococcus aureus 209-P; read-out: Minimum inhibition concentration (MIC)
Protocol: as §1

[7] = tested on: Staphylococcus aureus Smith (A); test: MIC, agar dilution method, pH 7.2; type: cell-based; conditions: pH 7.2; Staphylococcus aureus Smith (A); read-out: Minimum inhibition concentration (MIC)
Protocol: as §1

[8] = tested on: Staphylococcus a ureus 226; test: MIC, agar dilution method, pH 7.2; type: cell-based, Staphylococcus aureus; conditions: pH 7.2; Staphylococcus aureus 226; read-out: Minimum inhibition concentration (MIC)
Protocol: as §1

Eschericihia coli 3100 = test: MIC, agar dilution method, pH 7.2; type: cell-based, Escherichia coli; conditions: Escherichia coli; pH 7.2; E. coli 3100; read-out: Minimum inhibition concentration (MIC)
Protocol: as §1

[9] = tested on: Escherichia coli 57R/W677; test: MIC, agar dilution method, pH 7.2; type: cell-based; conditions: 57R/W677, pH 7.2, read-out: Minimum inhibition concentration (MIC)
Protocol: as §1
(§2) **1: gentamicin, producing adenylsynthetase.

Escherichia coli 76-2 = test: MIC, agar dilution method, pH 7.2; type: cell-based
Protocol: as §1, §2

[10] = tested on: Escherichia coli R12 Z-338; test: MIC, agar dilution method, pH 7.2; type: cell-based; conditions: R12Z338, pH 7.2, E. coli R12 Z-338, 1**: gentamicin, producing adenylsynthetase, read-out: Minimum inhibition concentration (MIC)
Protocol: as §1, §2

[11] = tested on: Klebsiella pneumoniae 3020 Y-60; test: MIC, agar dilution method, pH 7.2; type: cell-based; conditions: 3020Y60; pH 7.2; Klebsiella pneumoniae 3020 Y-60; 1**: gentamicin, producing adenylsynthetase; read-out: Minimum inhibition concentration (MIC)
Protocol: as §1, §2

[12] = tested on: Escherichia coli R18 KY8321; test: MIC, agar dilution method, pH 7.2; type: cell-based; conditions: R18KY8321, E. coli R18 KY8321, 2**: gentamicin, producing adenylsynthetase and neomycin phosphotransferase type II, read-out: Minimum inhibition concentration (MIC)
Protocol: as §1
2: gentamicin, producing adenylsynthetase and neomycin phosphotransferase

[13] = tested on: Escherichia coli R17 Z343; test: MIC, agar dilution method, pH 7.2; type: cell-based
Protocol: as §1
(§3) 3: kanamycin, producing acetyltransferase.

[14] = tested on: Pseudomonas aeruginosa R9 KY8516; test: MIC, agar dilution method, pH 7.2; type: cell-based; conditions: R9KY8516, pH 7.2, P. aeruginosa R9 KY8516, 3**: kanamycin, producing acetyltransferase, read-out: Minimum inhibition concentration (MIC)
Protocol: as §1, §3

Serratia marcescens 1065 = test: MIC, agar dilution method, pH 7.2; type: cell-based
Protocol: as §1, §3

[15] = tested on: Escherichia coli R20 KY8349; test: MIC, agar dilution method, pH 7.2; type: cell-based
Protocol: as §1
5: neomycin, producing phosphotransferase type I.

[16] = tested on: Pseudomonas aeruginosa R5 KY8512; test: MIC, agar dilution method, pH 7.2; type: cell-based
Protocol: as §1
6: neomycin, producing phosphotransferase type I and type II.

Providencia sp 164 = test: MIC, agar dilution method, pH 7.2; type: cell-based; conditions: pH 7.2; Providencia sp 164; 7**: gentamicin, producing acetyltransferase type II; read-out: Minimum inhibition concentration (MIC)
Protocol: as §1
7: gentamicin, producing acetyltransferase type II.

[17] = tested on: Staphylococcus aureus KY4279 ATCC6538P; test: MIC, agar dilution method, pH 8.0; type: cell-based; conditions: pH 8.0, Staphylococcus aureus KY4279, read-out: Minimum inhibition concentration (MIC), SA
Protocol: as §1
S.A.: Staphylococcus aureus KY4279 ATCC6538P

Bacillus subtilis KY4273 = test: MIC, agar dilution method, pH 8.0; type: cell-based; conditions: pH 8.0; Bacillus subtilis KY4273; read-out: Minimum inhibition concentration (MIC), BS
Protocol: as §1
B.S.: Bacillus subtilis KY4273

[18] = tested on: Proteus vulgaris KY4277 ATCC6897; test: MIC, agar dilution method, pH 8.0; type: cell-based; conditions: ATCC6897; pH 8.0; Proteus vulgaris KY4277; read-out: Minimum inhibition concentration (MIC), PV
Protocol: as §1

[19] = tested on: Shigella sonnei KY4281 ATCC9290; test: MIC, agar dilution method, pH 8.0; type: cell-based; conditions: ATCC9290; pH 8.0; Shigella sonnei KY4281; read-out: Minimum inhibition concentration (MIC), SS
Protocol: as §1

[20] = tested on: Salmonella typhosa KY4278 ATCC9992; test: MIC, agar dilution method, pH 8.0; type: cell-based; conditions: Salmonella enterica, pH 8, read-out: Minimum inhibition concentration (MIC), ST
Protocol: as §1
S.T.: Salmonella typhosa KY4278 ATCC9992

[21] = tested on: Klebsiella pneumoniae KY4275 ATCC10031; test: MIC, agar dilution method, pH 8.0; type: cell-based; conditions: ATCC10031; pH 8.0; Klebsiella pneumoniae KY4275; read-out: Minimum inhibition concentration (MIC), KP
Protocol: as §1
K.P.: Klebsiella pneumoniae KY4275 ATCC10031.

Structure (SMILES) | MIC [4] [µg/mL] | MIC (Shigella sonnei ATCC9290) [µg/mL] | MIC [6] [µg/mL] | MIC [7] [µg/mL] | MIC [8] [µg/mL] | MIC (Eschericihia coli 3100) [µg/mL] | MIC [9] [µg/mL] | MIC [10] [µg/mL] | MIC [11] [µg/mL] | MIC [12] [µg/mL] | MIC [14] [µg/mL] | MIC (Providencia sp 164) [µg/mL] | MIC [17] [µg/mL] | MIC (Bacillus subtilis KY4273) [µg/mL] | MIC [18] [µg/mL] | MIC [19] [µg/mL] | MIC [20] [µg/mL] | MIC [21] [µg/mL] | other results
CO[C@H]1[C@@H](O)[C@H](N)[C@@H](O[C@H]2O[C@H]([C@H](C)N)CC[C@H]2N)[C@H](O)[C@@H]1N(C)C(=O)CNC(N)=O [Compound 3, 4-N-hydantoylfortimicin B, reference compound] | 50 (≈ 111 µM) | 25 (≈ 55.7 µM) | 3.12 (≈ 6.96 µM) | 6.25 (≈ 13.9 µM) | 6.25 (≈ 13.9 µM) | 12.5 (≈ 27.9 µM) | 25 (≈ 55.7 µM) | 6.25 (≈ 13.9 µM) | 100 (≈ 223 µM) | 6.25 (≈ 13.9 µM) | > 100 | 100 (≈ 223 µM) | 0.16 (≈ 0.357 µM) | 0.32 (≈ 0.713 µM) | 0.63 (≈ 1.4 µM) | 1.25 (≈ 2.79 µM) | 0.32 (≈ 0.713 µM) | 0.63 (≈ 1.4 µM) | MIC (Escherichia coli NIHTC-2; NIHTC2, pH 7.2, Escherichia coli NIHTC-2, read-out: Minimum inhibition concentration (MIC)): 12.5 µg/mL (≈ 27.9 µM); MIC ([1]; pH 7.2, E. coli GN2411-5, read-out: Minimum inhibition concentration (MIC)): 25 µg/mL (≈ 55.7 µM); MIC ([2]; pH 7.2, Klebsiella pneumoniae KY4274, read-out: Minimum inhibition concentration (MIC)): 12.5 µg/mL (≈ 27.9 µM); MIC (Proteus vulgaris JJ; pH 7.2, Proteus vulgaris JJ, read-out: Minimum inhibition concentration (MIC)): 12.5 µg/mL (≈ 27.9 µM); MIC ([3]; pH 7.2, Pseudomonas aeruginosa BMH# 1, read-out: Minimum inhibition concentration (MIC)): 100 µg/mL (≈ 223 µM); MIC ([5]; pH 7.2, Salmonella enteritidis G-14, read-out: Minimum inhibition concentration (MIC)): 25 µg/mL (≈ 55.7 µM); MIC (Escherichia coli 76-2; Escherichia coli, 762, pH 7.2, E. coli 76-2, 1**: gentamicin, producing adenylsynthetase, read-out: Minimum inhibition concentration (MIC)): 12.5 µg/mL (≈ 27.9 µM); MIC ([13]; R17Z343, pH 7.2, E. coli R17 Z343, 3**: kanamycin, producing acetyltransferase, read-out: Minimum inhibition concentration (MIC)): 3.12 µg/mL (≈ 6.96 µM); MIC (Serratia marcescens 1065; pH 7.2, Serratia marcescens 1065, 3**: kanamycin, producing acetyltransferase, read-out: Minimum inhibition concentration (MIC)): 50 µg/mL (≈ 111 µM); MIC ([15]; R20KY8349, pH 7.2, E. coli R20 KY8349, 5**: neomycin, producing phosphotransferase type I, read-out: Minimum inhibition concentration (MIC)): 12.5 µg/mL (≈ 27.9 µM); MIC ([16]; R5KY8512, pH 7.2, P. aeruginosa R5 KY8512, 6**: neomycin, producing phosphotransferase type I and type II, read-out: Minimum inhibition concentration (MIC)): 50 µg/mL (≈ 111 µM)
CO[C@H]1[C@@H](O)[C@H](N)[C@@H](O[C@H]2O[C@H]([C@H](C)N)CC[C@H]2N)[C@H](O)[C@@H]1N(C)C[C@@H](O)CCN [Compound 27, 4-N-[(S)-4-amino-2-hydroxybutyl]fortimicin B] | 25 (≈ 57.4 µM) | 3.12 (≈ 7.16 µM) | 0.4 (≈ 0.918 µM) | 0.4 (≈ 0.918 µM) | 0.4 (≈ 0.918 µM) | 12.5 (≈ 28.7 µM) | 12.5 (≈ 28.7 µM) | 12.5 (≈ 28.7 µM) | 12.5 (≈ 28.7 µM) | 6.25 (≈ 14.3 µM) | 25 (≈ 57.4 µM) | 25 (≈ 57.4 µM) | 0.04 (≈ 0.0918 µM) | 0.04 (≈ 0.0918 µM) | 0.32 (≈ 0.735 µM) | 1.25 (≈ 2.87 µM) | 0.16 (≈ 0.367 µM) | 0.32 (≈ 0.735 µM) | MIC (Escherichia coli NIHTC-2; Escherichia coli, NIHTC2, pH 7.2, read-out: Minimum inhibition concentration (MIC)): 3.12 µg/mL (≈ 7.16 µM); MIC ([1]; GN2411, pH 7.2, read-out: Minimum inhibition concentration (MIC)): 6.25 µg/mL (≈ 14.3 µM); MIC ([2]; Klebsiella pneumoniae, KY4274, pH 7.2, read-out: Minimum inhibition concentration (MIC)): 3.12 µg/mL (≈ 7.16 µM); MIC (Proteus vulgaris JJ; Proteus vulgaris, pH 7.2, read-out: Minimum inhibition concentration (MIC)): 3.12 µg/mL (≈ 7.16 µM); MIC ([3]; Pseudomonas aeruginosa, pH 7.2, read-out: Minimum inhibition concentration (MIC)): 6.25 µg/mL (≈ 14.3 µM); MIC ([5]; ENTERITIDIS, pH 7.2, read-out: Minimum inhibition concentration (MIC)): 3.12 µg/mL (≈ 7.16 µM); MIC (Escherichia coli 76-2; Escherichia coli, 762, pH 7.2, read-out: Minimum inhibition concentration (MIC)): 6.25 µg/mL (≈ 14.3 µM); MIC ([13]; R17Z343, pH 7.2, read-out: Minimum inhibition concentration (MIC)): 3.12 µg/mL (≈ 7.16 µM); MIC (Serratia marcescens 1065; Serratia marcescens, 1065, pH 7.2, read-out: Minimum inhibition concentration (MIC)): 6.25 µg/mL (≈ 14.3 µM); MIC ([15]; R20KY8349, pH 7.2, read-out: Minimum inhibition concentration (MIC)): 1.25 µg/mL (≈ 2.87 µM); MIC ([16]; R5KY8512, pH 7.2, read-out: Minimum inhibition concentration (MIC)): 6.25 µg/mL (≈ 14.3 µM)
